Experimental data reported in patent US20190369111A1, “MOLECULAR KINETICS EVALUATION METHOD AND SCREENING METHOD” (Tokyo University of Science Foundation, priority 2016, published 2019).

Molecular target: T1, wild-type H-Ras protein (Homo sapiens, UniProt P01112)
T1 construct: an endogenous wild-type K-Ras protein and wild-type H-Ras protein in HeLa cells; endogenous in cells; host or cells: HeLa cells
Experiment: Degradation of endogenous wild-type H-Ras protein in HeLa cells, Western blot analysis
Type: cell-based
Details: 48 hours after addition
Method: HeLa cells were seeded in a 24-well plate at a cell density of 8×10^4 cells/well, and then cultured under conditions of 37° C. and 5 vol % CO2 for 16 hours.
After 16 hours from cell seeding, TUS-007 was added to HeLa cells as follows. As a medium, a serum-free medium (37° C.) in which 1 mass % L-glutamine solution (Sigma-Aldrich) was added to D-MEM (high D-glucose, phenol red, sodium pyruvate (Wako Pure Chemical Industries, Ltd.)) was used. It is noted that the L-glutamine solution was added immediately before use. A DMSO solution containing TUS-007 was mixed with the medium so that the concentration of DMSO was 1 vol %, and added to each well at 500 μL/well, and cultured under conditions of 37° C. and 5 vol % CO2. As a control, DMSO was used.
The medium was removed 48 hours after addition of TUS-007, and then PBS was added to wash the cells. […]
After electrophoresis, proteins were transferred to a PVDF membrane (Immobion™-P, Millipore) under conditions of 100 V and 2 hours using a tank-type blotting device and a transfer buffer (25 mM Tris-HCl, 195 mM glycine, 0.01% SDS, 15% methanol). […] Subsequently, the membrane was treated with a chemiluminescence reagent Immobilon™ Western (Millipore), and then chemiluminescence was detected using a lumino image analyzer LAS-3000 (FUJIFILM Corporation). […]

T1 sequence (P01112 whole entry): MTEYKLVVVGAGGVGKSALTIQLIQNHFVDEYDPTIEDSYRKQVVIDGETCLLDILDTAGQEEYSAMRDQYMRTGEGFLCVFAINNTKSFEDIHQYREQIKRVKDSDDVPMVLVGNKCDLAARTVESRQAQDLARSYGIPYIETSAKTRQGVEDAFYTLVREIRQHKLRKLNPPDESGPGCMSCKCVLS

**Q.** Which “amount of endogenous wild-type H-Ras protein” value does the source give for CC[C@@H](C)[C@H](NC(=O)CCCCCCNC(=O)[C@H](CC(C)C)NC(=O)CNC(=O)c1cc(Cl)ccc1Cl)C(=O)Nc1ccc2[nH]c(Cc3c[nH]c4ccccc34)nc2c1 [TUS-007] here?
**A.** reduced
